The target in the experiment is Endothelial lipase (EL) (Homo sapiens (Human), UniProt Q9Y5X9). The experiment can be described thus: Endothelial lipase (EL) enzymatic assay with fluorescent substrate A10070 in DMPG vesicles. The experiment is classed as biochemical. The method in brief:
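Compounds were preincubated with enzyme for 30 min at 37° C before FRET-substrate vesicles (A10070 in DMPG, 0.11 mole fraction) were added. Reaction rates were obtained from the 300–900 sec slope of fluorescence at 490/530 nm.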
Endothelial lipase (EL), sequence (Q9Y5X9 21-500): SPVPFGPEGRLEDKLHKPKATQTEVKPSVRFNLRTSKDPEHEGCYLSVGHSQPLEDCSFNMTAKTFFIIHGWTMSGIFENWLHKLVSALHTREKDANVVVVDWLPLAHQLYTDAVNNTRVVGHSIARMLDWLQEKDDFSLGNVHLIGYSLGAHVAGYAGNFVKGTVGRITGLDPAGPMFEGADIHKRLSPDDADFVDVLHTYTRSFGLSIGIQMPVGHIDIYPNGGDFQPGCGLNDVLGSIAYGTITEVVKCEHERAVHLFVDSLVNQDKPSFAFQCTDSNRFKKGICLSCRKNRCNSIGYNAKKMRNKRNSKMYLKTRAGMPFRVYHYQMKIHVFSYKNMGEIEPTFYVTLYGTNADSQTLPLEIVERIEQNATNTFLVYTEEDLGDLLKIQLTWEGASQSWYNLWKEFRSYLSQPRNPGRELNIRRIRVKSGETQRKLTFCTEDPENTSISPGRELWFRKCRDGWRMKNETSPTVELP
One may read the IC50 as the concentration needed to halve the response being measured. The low end stands for greater potency in that assay, the high end for weaker potency in that assay. On to `COC(=O)Nc1ccc(-c2cc3nc(C(C(=O)NCC(=O)NC4CC4)S(C)(=O)=O)sc3cc2F)cc1F` (centres unmarked) [Example 122, methyl N-{4-[2-({[(cyclopropyl-carbamoyl)methyl]carbamoyl} (methanesulfonyl)methyl)-6-fluoro-1,3-benzothiazol-5-yl]-2-fluorophenyl} carbamate], for which 7 nM corresponded to half-maximal inhibition (IC50).
The molecule `O=C(CNC(=O)C(c1nc2cc(F)c(-c3cncnc3)cc2s1)S(=O)(=O)c1ccccc1F)NC1CC1` (centres unmarked) [Example 441, N-[(cyclopropyl-carbamoyl)methyl]-2-[5-fluoro-6-(pyrimidin-5-yl)-1,3-benzothiazol-2-yl]-2-(2-fluorobenzene-sulfonyl)acetamide] had an IC50 of 87 nM.
Molecule `COCCS(=O)(=O)C(C(=O)NCC(=O)NC1CC1)c1nc2ccc(-c3cnc(Cl)n3C)cc2s1` (centres unmarked) [Example 345, 2-[6-(2-chloro-1-methyl-1H-imidazol-5-yl)-1,3-benzothiazol-2-yl]-N-[(cyclopropyl-carbamoyl)methyl]-2-(2-methoxyethane-sulfonyl)acetamide] returned an IC50 of 135 nM.
As to `COC(=O)Nc1cccc(-c2cc3nc(C(C(=O)NCC(=O)NC4CC4)S(C)(=O)=O)sc3cc2F)c1` (centres unmarked) [Example 123, methyl N-{3-[2-({[(cyclopropyl-carbamoyl)methyl]carbamoyl} (methanesulfonyl)methyl)-6-fluoro-1,3-benzothiazol-5-yl]phenyl} carbamate], the IC50 was 5 nM.
Turning to `COCCS(=O)(=O)C(C(=O)NCC(=O)NC1CC1)c1nc2cc(F)c(-c3ccc(=O)n(C(C)C)c3)cc2s1` (centres unmarked) [Example 160, N-[(cyclopropyl-carbamoyl)methyl]-2-{5-fluoro-6-[6-oxo-1-(propan-2-yl)-1,6-dihydropyridin-3-yl]-1,3-benzothiazol-2-yl}-2-(2-methoxyethane-sulfonyl) acetamide], the IC50 worked out at 12 nM.
To `COCCS(=O)(=O)C(C(=O)NCC(=O)NC1CC1)c1nc2cc(F)c(-c3ccc4c(cnn4C)c3)cc2s1` (centres unmarked) [Example 152, N-[(cyclopropyl-carbamoyl)methyl]-2-[5-fluoro-6-(1-methyl-1H-indazol-5-yl)-1,3-methoxyethane-sulfonyl) acetamide] belongs 3 nM; to `CC(=O)N(C)c1ccc(-c2cc3sc(C(C(=O)NCC(=O)NC4CC4)S(C)(=O)=O)nc3cc2F)cc1` (centres unmarked) [Example 31, N-[(cyclopropyl-carbamoyl)methyl]-2-{5-fluoro-6-[4-(N-methylacetamido)phenyl]-1,3-benzothiazol-2-yl}-2-methanesulfonyl-acetamide], 11 nM; to `COCCS(=O)(=O)C(C(=O)NCC(=O)NC1CC1)c1nc2cc(-c3ccc(NC(=O)OCc4ccccc4)cc3)c(F)cc2s1` (centres unmarked) [Example 10, benzyl N-{4-[2-({[(cyclopropyl-carbamoyl)methyl]carbamoyl}(2-methoxyethane-sulfonyl)methyl)-6-fluoro-1,3-benzothiazol-5-yl]phenyl} carbamate], 1 nM.
The molecule `O=C(CNC(=O)C(c1nc2ccc(-c3ccc4c(c3)CN(C3CC3)C4=O)cc2s1)S(=O)(=O)c1ccc(F)cc1)NC1CC1` (centres unmarked) [Example 597, 2-[6-(2-cyclopropyl-1-oxo-2,3-dihydro-1H-isoindol-5-yl)-1,3-benzothiazol-2-yl]-N-[(cyclopropyl-carbamoyl)methyl]-2-(4-fluorobenzene-sulfonyl)acetamide] returned an IC50 of 7 nM. Compared with the last molecule, the IC50 is about 7-fold higher.
`Cc1ncc(-c2cc3sc(C(C(=O)NCC(=O)NC4CC4)S(=O)(=O)C(C)C)nc3cc2F)cn1` (centres unmarked) [Example 231, N-[(cyclopropyl-carbamoyl)methyl]-2-[5-fluoro-6-(2-methylpyrimidin-5-yl)-1,3-benzothiazol-2-yl]-2-(propane-2-sulfonyl) acetamide] yielded an IC50 of 11 nM.
In turn, `O=C(CNC(=O)C(c1nc2cc(-c3ccc(F)nc3)ccc2s1)S(=O)(=O)Cc1ccc(F)nc1)NC1CC1` (centres unmarked) [Example 15, N-[(cyclopropyl-carbamoyl)methyl]-2-[5-(6-fluoropyridin-3-yl)-1,3-benzothiazol-2-yl]-2-[(6-fluoropyridin-3-yl)methanesulfonyl] acetamide] returned an IC50 of 29 nM.
To `COCCS(=O)(=O)C(C(=O)NCC(=O)NC1CC1)c1nc2cc(-c3ccc(-n4cnnn4)cc3)c(F)cc2s1` (centres unmarked) [Example 132, N-[(cyclopropyl-carbamoyl)methyl]-2-{6-fluoro-5-[4-(1H-1,2,3,4-tetrazol-1-yl)phenyl]-1,3-benzothiazol-2-yl}-2-(2-methoxyethane-sulfonyl) acetamide] belongs 52 nM.
`COCCS(=O)(=O)C(C(=O)NCC(=O)NC1CC1)c1nc2ccc(-c3ccccc3)cc2s1` (centres unmarked) [Example 305, N-[(cyclopropyl-carbamoyl)methyl]-2-(2-methoxyethane-sulfonyl)-2-(6-phenyl-1,3-benzothiazol-2-yl) acetamide] displayed an IC50 of 7 nM. Compared with the last molecule, the IC50 is about 7.4-fold lower.
The same measure for `O=C(CNC(=O)C(c1nc2cc(-c3ccc(F)nc3)ccc2s1)S(=O)(=O)Cc1ccc(C(F)(F)F)cc1)NC1CC1` (centres unmarked) [Example 17, N-[(cyclopropyl-carbamoyl)methyl]-2-[5-(6-fluoropyridin-3-yl)-1,3-benzothiazol-2-yl]-2-{[4-(trifluoromethyl)phenyl]methanesulfonyl} acetamide]: 46 nM; for `CC(C)S(=O)(=O)C(C(=O)NCC(=O)NC1CC1)c1nc2cc(F)c(-c3ccc(C(=O)N4CCC4)cc3)cc2s1` (centres unmarked) [Example 244, 2-{6-[4-(azetidine-1-carbonyl)phenyl]-5-fluoro-1,3-benzothiazol-2-yl}-N-[(cyclopropyl-carbamoyl)methyl]-2-(propane-2-sulfonyl)acetamide]: 7 nM; for `C[C@@H]1CN(C(=O)c2ccc(-c3ccc4nc(C(C(=O)NCC(=O)NC5CC5)S(C)(=O)=O)sc4c3)cc2)C[C@H](C)O1` (stereo partly drawn) [Example 570, N-[(cyclopropyl-carbamoyl)methyl]-2-(6-{4-[(2R,6S)-2,6-dimethyl-morpholine-4-carbonyl]phenyl}-1,3-benzothiazol-2-yl)-2-methanesulfonyl-acetamide]: 4 nM.
To `O=C(CNC(=O)C(c1nc2c(F)cc(-c3ccc4c(c3)C(=O)NC4)cc2s1)S(=O)(=O)c1ccc(F)cc1)NC1CC1` (centres unmarked) [Example 477, N-[(cyclopropyl-carbamoyl)methyl]-2-[4-fluoro-6-(3-oxo-2,3-dihydro-1H-isoindol-5-yl)-1,3-benzothiazol-2-yl]-2-(4-fluorobenzene-sulfonyl)acetamide] belongs 68 nM.
Turning to `COCCS(=O)(=O)C(C(=O)NCC(=O)NC1COC1)c1nc2ccc(-c3ccc(F)nc3)cc2s1` (centres unmarked) [Example 384, 2-[6-(6-fluoropyridin-3-yl)-1,3-benzothiazol-2-yl]-2-(2-methoxyethane-sulfonyl)-N-{[(oxetan-3-yl)carbamoyl]methyl} acetamide], the IC50 worked out at 13 nM.
In turn, `COCCS(=O)(=O)C(C(=O)NCC(=O)NC1CC1)c1nc2cc(-c3cnc(C)nc3)c(C)cc2s1` (centres unmarked) [Example 184, N-[(cyclopropyl-carbamoyl)methyl]-2-(2-methoxyethane-sulfonyl)-2-[6-methyl-5-(2-methylpyrimidin-5-yl)-1,3-benzothiazol-2-yl]acetamide] came in with an IC50 of 29 nM.
With `COCCS(=O)(=O)C(C(=O)NCC(=O)NC1CC1)c1nc2cc(F)c(-c3ccc(-c4nnn(C)n4)cc3)cc2s1` (centres unmarked) [Example 593, N-[(cyclopropyl-carbamoyl)methyl]-2-{5-fluoro-6-[4-(2-methyl-2H-1,2,3,4-tetrazol-5-yl)phenyl]-1,3-benzothiazol-2-yl}-2-(2-methoxyethane-sulfonyl)acetamide], it took 9 nM to reach half-maximal inhibition (IC50).

The values above are taken from patent US10173991B2, “Sulfone amide linked benzothiazole inhibitors of endothelial lipase” (BRISTOL-MYERS SQUIBB COMPANY, priority 2014, dated 2019).
